# Data from JP2008208074A, “ピラジン誘導体を有効成分とする抗がん剤” (Toray Industries Inc, priority 2007, dated 2008).
# What was measured:
# [1] = Body weight and side effects in mouse colon cancer model (Example 2); assay type: in vivo; settings: sodium salt of Reference Example 72, 20 mg/kg i.v. once daily day 0-3
# [2] = tested on: tumour derived from mouse colon cancer cell line Colon26 [マウス結腸癌細胞株であるColon26細胞由来の腫瘍]; assay: Tumour growth suppression in mouse colon cancer model (Example 2); assay type: in vivo; settings: sodium salt of Reference Example 72; BALB/c mice, male, Colon26 tumour s.c.; 20 mg/kg i.v. once daily day 0-3; n=7; day 3
smiles,measurement,setting,value
"O=C(O)Cc1ccn(-c2cncc(-n3ncc4ccc(NC5CCCC5)cc43)n2)c1 [参考例72, 2-(1-(6-(6-(シクロペンチルアミノ)-1H-インダゾール-1-イル)ピラジン-2-イル)-1H-ピロール-3-イル)酢酸, ナトリウム塩]",body weight difference between treated and control group,"[1]; n=7, day 4, result in words",差は認められなかった
same,body weight,"[1]; BALB/c mice with Colon26 tumour, n=7, weighed day 4, control group 22.9±0.5 g",22.7 ± 0.5 g
same,side effects,"[1]; mouse, individual level, concluded from body weight, result in words",副作用を示すことなく
same,suppression of estimated tumour volume compared with control group,[2],29%
